Laboratory results reported in patent US20260174786A1, “A NITROGEN-CONTAINING SPIROCYCLIC COMPOUND, PHARMACEUTICAL COMPOSITION AND USE THEREOF” (Prime Gene Therapeutics Co., Ltd., priority 2022, published 2026).
Each block holds one molecule with its values, some of them ahead of it.

What was measured:
[1] = Liver microsome metabolism stability test (rat); format: in vitro ADME; conditions: rat liver microsomes, 1 μM compound
Experimental: (§1) Two separate experiments were conducted. a) NADPH: 10 μL of 20 mg/mL liver microsomes and 40 μL of 10 mM NADPH were added to a culture medium. The final concentrations of microsomes and NADPH were 0.5 mg/mL and 1 mM, respectively. b) NADPH free: 10 μL of 20 mg/mL liver microsomes and 40 μL of ultrapure H2O were added to a culture medium. The final concentration of microsomes was 0.5 mg/mL.
(§2) At the beginning of the reaction, 4 μL of 100 μM test compound solution or a control compound solution with a final concentration of 1 μM were added, and proceed at 37° C.
(§3) 50 μL aliquots were taken from the reaction solution at 0, 7, 15, 30, and 60 minutes. The reaction was stopped by adding 4 volumes of cold acetonitrile and IS (100 nM alprazolam, 200 nM labetalol, 200 nM caffeine, and 2 μM ketoprofen). The samples were centrifuged at 3220 grams for 40 minutes. 100 μL supernatant divided equally was mixed with 100 μL of ultrapure H2O, and use for LC-MS/MS analysis.

[2] = Balanced dialysis plasma protein binding test (rat); format: in vitro ADME
Experimental: (§4) 1. Immersing a dialysis membrane (water: 60 minutes, 20% ethanol: 20 minutes, dialysis buffer: 20 minutes). 2. Diluting the test compound in dimethyl sulfoxide (working solution) to 200 μM. 3. Thawing the plasma in a 37° C. water bath and centrifuge the plasma at 3220 g for 10 minutes to remove blood clots. 4. Transferring the supernatant to a new tube and preheating it in a 37° C. water bath for 10 minutes. 5. Assembling HTD dialysis equipment according to the manufacturer's guidelines. 6. Adding 3 μL of 200 μM test compound to 597 μL of plasma and rotating at 1000 rpm for 2 minutes. 7. Transferring 50 μL of spiked plasma to a 96 well plate, then adding 50 μL of dialysis buffer and 200 μL of methanol, using IS * as the T0 sample. 8. Adding 120 μL of spiked plasma and 120 μL of dialysis buffer in duplicate into the chamber of the HTD dialysis device. 9. Covering the dialysis equipment with a breathable cover and incubating the dialysis equipment and the remaining spiked plasma at 37° C. (100 rpm, 5% CO2) for 6 hours. 10. Transferring 50 μL of dialyzed sample from the dialysis buffer and the plasma chamber to a separate 96 well plate, then adding 50 μL of blank plasma or dialysis buffer and 200 μL of methanol, with IS * as the B and P samples. 11. Transferring 50 μL of remaining spiked plasma (as described in step 9) to a 96 well plate, then adding 50 μL of dialysis buffer and 200 μL of methanol, with IS * as the T6 sample. 12. Centrifuging the sample plate at 3220 g for 40 minutes. 13. Transferring 100 μL of supernatant onto an analytical plate containing an appropriate volume of water for LC-MS/MS. 14. Data analysis.

[3] = Liver microsome metabolism stability test (human); format: in vitro ADME; conditions: human liver microsomes, 1 μM compound
Experimental: as §1, §2, §3

[4] = Balanced dialysis plasma protein binding test (human); format: in vitro ADME
Experimental: as §4

Caco-2 cells = assay: Permeability experiment of Caco-2 cells; format: in vitro ADME; conditions: Caco-2, 5 μM
Experimental: (§5) 1. Transwell plate preheating: before laying cells, adding 100 μL of culture medium to the upper layer of Transwell plate and 600 μL of culture medium to the lower layer of Transwell plate, Pre-incubating at 37° C. under 5% CO2 for 1 hour. 2. Treating Caco-2 cells by adding 100 μL of cell suspension (4×10^5 cells/mL) to each well, and cultivating in a 37° C., 5% CO2 incubator for 14-21 days. 3. Changing the cell culture medium every other day within 7 days, and changing it daily after 7 days. 4. Using EVOM3 to measure single-layer epithelial to epithelial resistance (TEER).
(§6) 1. Preheating HBSS (10 mM HEPES, pH 7.4) buffer, cleaning the upper and lower layers of Transwell plates twice each, and incubating at 37° C. for 30 minutes. 2. Working solution: Diluting the test compound HBSS buffer with 1 mM DMSO to 5 μM. 3. A-B direction: Adding 200 μL of 5 μM working solution to the upper layer and 600 μL of HBSS buffer solution to the lower layer; 4. B-A direction: Adding 600 μL of 5 μM working solution to the lower layer and 200 μL of HBSS buffer to the upper layer, and incubating for 2 hours. 5. C0 sample: Taking 100 μL of working solution to a sample plate containing 400 μL of methanol (internal standard). 6. After incubation for 2 hours, taking 100 μL from the upper and lower layers of the chamber to the sample plates containing 400 μL of methanol (internal standard). 7. Mixing and centrifuging, mixing the supernatant with a certain amount of water, and using the sample for LC-MS/MS data analysis. 8. After completing step 6, adding 200 μL of 100 μM fluorescent yellow solution to the upper chamber and 600 μL of HBSS buffer salt solution to the lower chamber. Incubating at 37° C. and 5% CO2 for 30 minutes, and taking out 50 μL of each into a black plate to read the fluorescence value. 9. Data analysis.

[5] = Permeability experiment of Caco-2 cells; format: in vitro ADME; conditions: human, pH 7.4, Caco-2, 5 μM
Experimental: as §5, §6

hTRPA1 = hTRPA1 (Homo sapiens, UniProt O75762); assay: Inhibition rate on different hTRPs: hTRPA1; format: cell-based
Sequence of hTRPA1 (O75762 whole entry): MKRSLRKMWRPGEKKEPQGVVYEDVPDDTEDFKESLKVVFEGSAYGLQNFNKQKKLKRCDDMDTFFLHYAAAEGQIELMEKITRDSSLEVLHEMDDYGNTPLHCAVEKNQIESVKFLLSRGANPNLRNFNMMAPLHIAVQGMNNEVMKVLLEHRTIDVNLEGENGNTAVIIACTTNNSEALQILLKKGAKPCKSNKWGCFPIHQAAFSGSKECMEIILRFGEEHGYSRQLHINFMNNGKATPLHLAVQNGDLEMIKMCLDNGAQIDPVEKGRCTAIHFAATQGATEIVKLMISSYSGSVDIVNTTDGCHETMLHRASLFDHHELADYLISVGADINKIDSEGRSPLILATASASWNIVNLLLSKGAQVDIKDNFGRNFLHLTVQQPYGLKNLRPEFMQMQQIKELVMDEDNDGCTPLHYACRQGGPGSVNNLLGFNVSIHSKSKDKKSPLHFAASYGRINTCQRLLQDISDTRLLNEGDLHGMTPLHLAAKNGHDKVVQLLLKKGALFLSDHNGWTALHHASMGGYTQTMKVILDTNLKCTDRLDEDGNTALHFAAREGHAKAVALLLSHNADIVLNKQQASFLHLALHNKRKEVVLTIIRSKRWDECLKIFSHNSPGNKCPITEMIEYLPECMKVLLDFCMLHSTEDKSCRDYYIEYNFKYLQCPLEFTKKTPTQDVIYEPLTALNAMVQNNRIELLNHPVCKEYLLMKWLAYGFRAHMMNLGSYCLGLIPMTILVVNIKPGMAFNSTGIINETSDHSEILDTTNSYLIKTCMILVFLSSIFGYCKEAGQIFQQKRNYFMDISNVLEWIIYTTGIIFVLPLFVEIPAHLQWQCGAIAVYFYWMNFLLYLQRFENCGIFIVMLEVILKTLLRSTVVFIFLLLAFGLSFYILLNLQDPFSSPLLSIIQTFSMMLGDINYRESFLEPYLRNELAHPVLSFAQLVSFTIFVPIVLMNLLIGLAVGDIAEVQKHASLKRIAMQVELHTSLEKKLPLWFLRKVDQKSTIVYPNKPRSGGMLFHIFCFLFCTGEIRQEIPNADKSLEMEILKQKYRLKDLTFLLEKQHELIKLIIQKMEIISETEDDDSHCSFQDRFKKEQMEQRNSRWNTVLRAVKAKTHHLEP

hTRPV1 = hTRPV1 (Homo sapiens, UniProt Q8NER1); assay: Inhibition rate on different hTRPs: hTRPV1; format: cell-based
Sequence of hTRPV1 (Q8NER1 whole entry): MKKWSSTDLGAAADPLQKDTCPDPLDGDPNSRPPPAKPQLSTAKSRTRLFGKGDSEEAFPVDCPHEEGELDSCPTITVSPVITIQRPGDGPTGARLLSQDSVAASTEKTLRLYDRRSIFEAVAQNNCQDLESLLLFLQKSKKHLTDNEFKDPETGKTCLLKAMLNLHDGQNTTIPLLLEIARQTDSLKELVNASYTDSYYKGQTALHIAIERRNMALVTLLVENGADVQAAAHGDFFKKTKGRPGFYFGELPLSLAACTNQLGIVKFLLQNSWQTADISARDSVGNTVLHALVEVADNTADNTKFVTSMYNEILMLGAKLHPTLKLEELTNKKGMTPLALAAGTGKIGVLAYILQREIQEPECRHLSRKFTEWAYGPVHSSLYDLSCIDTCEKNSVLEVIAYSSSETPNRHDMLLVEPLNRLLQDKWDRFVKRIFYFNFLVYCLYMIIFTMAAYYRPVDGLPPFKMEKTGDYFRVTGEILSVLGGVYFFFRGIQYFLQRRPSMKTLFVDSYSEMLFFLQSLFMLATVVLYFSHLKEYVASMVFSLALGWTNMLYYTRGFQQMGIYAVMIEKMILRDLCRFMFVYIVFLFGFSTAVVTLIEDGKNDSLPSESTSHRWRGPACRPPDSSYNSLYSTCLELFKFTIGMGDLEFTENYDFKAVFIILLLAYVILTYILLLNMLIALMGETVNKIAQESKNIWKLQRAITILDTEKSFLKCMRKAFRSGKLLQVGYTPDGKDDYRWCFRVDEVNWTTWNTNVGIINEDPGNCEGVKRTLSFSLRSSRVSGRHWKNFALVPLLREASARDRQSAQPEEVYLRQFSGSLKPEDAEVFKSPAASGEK

hTRPV4 = hTRPV4 (Homo sapiens, UniProt Q9HBA0); assay: Inhibition rate on different hTRPs: hTRPV4; format: cell-based
Sequence of hTRPV4 (Q9HBA0 whole entry): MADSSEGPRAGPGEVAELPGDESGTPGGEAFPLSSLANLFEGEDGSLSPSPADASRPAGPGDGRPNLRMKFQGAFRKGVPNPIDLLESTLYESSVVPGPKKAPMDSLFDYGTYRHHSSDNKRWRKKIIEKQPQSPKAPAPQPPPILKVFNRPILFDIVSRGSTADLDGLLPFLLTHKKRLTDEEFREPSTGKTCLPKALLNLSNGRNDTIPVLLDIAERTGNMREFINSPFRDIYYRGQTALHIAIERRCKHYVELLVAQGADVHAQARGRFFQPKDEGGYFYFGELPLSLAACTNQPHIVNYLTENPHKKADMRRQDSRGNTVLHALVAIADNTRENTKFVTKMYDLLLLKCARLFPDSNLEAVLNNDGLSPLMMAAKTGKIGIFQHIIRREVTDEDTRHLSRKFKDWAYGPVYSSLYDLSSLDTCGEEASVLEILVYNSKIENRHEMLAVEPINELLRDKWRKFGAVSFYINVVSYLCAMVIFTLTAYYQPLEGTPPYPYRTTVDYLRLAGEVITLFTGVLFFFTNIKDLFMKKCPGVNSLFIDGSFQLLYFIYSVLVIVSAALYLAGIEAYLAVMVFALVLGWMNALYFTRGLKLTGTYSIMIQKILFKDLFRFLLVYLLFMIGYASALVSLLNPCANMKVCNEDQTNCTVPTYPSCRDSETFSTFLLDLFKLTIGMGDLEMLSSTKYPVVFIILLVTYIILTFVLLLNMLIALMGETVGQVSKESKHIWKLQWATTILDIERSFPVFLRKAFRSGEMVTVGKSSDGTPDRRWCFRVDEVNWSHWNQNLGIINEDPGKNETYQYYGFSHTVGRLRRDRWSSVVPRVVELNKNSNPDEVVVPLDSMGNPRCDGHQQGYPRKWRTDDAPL

in vitro Clint [1]: 53.68 microliters/minute/milligrams
half-life at 1 μM ([1]; read-out: in vitro T1/2): 25.8 min
recover % [2]: 92.94%
remaining % ([2]; 6 hours): 102.46%
binding % ([2]; 6 hours dialysis): 99.78%
dissociated % ([2]; 6 hours dialysis): 0.22%
in vitro Clint [3]: 70.41 microliters/minute/milligrams
half-life at 1 μM ([3]; read-out: in vitro T1/2): 19.7 min
recover % [4]: 87.63%
remaining % ([4]; 6 hours): 97.37%
binding % ([4]; 6 hours dialysis): 99.58%
dissociated % ([4]; 6 hours dialysis): 0.42%
Compound: O=C(c1ccc(F)cn1)N1CCC2(CC(O)c3cc(-c4ccccc4C4CC4)ccc32)C1 (centres unmarked) [Example 15, (5-(2-cyclopropylphenyl)-3-hydroxy-2,3-dihydrospiro[indene-1,3′-pyrrolidine]-1′-yl)(5-fluoropyridin-2-yl) ketone]

Recover A→B % (Caco-2 cells): 49.40%
Recover B→A % (Caco-2 cells): 68.20%
Papp A→B at 2 h, 5 μM ([5]; 2 hours): 20.9 ×10⁻⁶ cm/s
Papp B→A at 2 h, 5 μM ([5]; 2 hours): 9.58 ×10⁻⁶ cm/s
efflux ratio at 2 h, 5 μM ([5]; read-out: External ratio): 0.46
inhibition at 0.3 µM (hTRPA1; hTRPA1, 0.3 μM): 10.7%
Selectivity ratio (hTRPA1; inhibition rate on TRPV3 / inhibition rate on hTRPA1, 0.3 μM): 8.4X
inhibition at 0.3 µM (hTRPV1; hTRPV1, 0.3 μM): 5.62%
Selectivity ratio (hTRPV1; inhibition rate on TRPV3 / inhibition rate on hTRPV1, 0.3 μM): 16.0X
inhibition at 0.3 µM (hTRPV4; hTRPV4, 0.3 μM): 29.3%
Selectivity ratio (hTRPV4; inhibition rate on TRPV3 / inhibition rate on hTRPV4, 0.3 μM): 3.1X
Compound: O=C(c1ccc(F)cn1)N1CC[C@@]2(C[C@@H](O)c3cc(-c4ccccc4C4CC4)ccc32)C1 [Example 21, ((1S,3R)-5-(2-cyclopropylphenyl)-3-hydroxy-2,3-dihydrospiro[indene-1,3′-pyrrolidine]-1′-yl)(5-fluoropyridin-2-yl)ketone]
